Measurements as given in PubChem BioAssay (NCI).
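A five-concentration, 48-hour dose response in 96-well plates underlies each endpoint, interpolated linearly between surrounding concentrations. Here, GI50 denotes the concentration required for 50% inhibition of growth. Definition used: TGI = concentration required for complete inhibition of growth.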

Tests used:
Test in all cases: inhibition of tumour cell growth, NCI panel, 48 h
M14 melanoma = tested on: M14 melanoma
HCT-116 colon = tested on: HCT-116 colon
HCC-2998 colon = tested on: HCC-2998 colon
RPMI-8226 leukemia = tested on: RPMI-8226 leukemia
MCF7 breast = tested on: MCF7 breast
SW-620 colon = tested on: SW-620 colon
SK-MEL-2 melanoma = tested on: SK-MEL-2 melanoma
NCI/ADR-RES ovarian = tested on: NCI/ADR-RES ovarian
HL-60(TB) leukemia = tested on: HL-60(TB) leukemia
COLO 205 colon = tested on: COLO 205 colon

Row | Compound | TGI (M14 melanoma) | TGI (HCT-116 colon) | TGI (HCC-2998 colon) | TGI (RPMI-8226 leukemia) | TGI (MCF7 breast) | TGI (SW-620 colon) | TGI (SK-MEL-2 melanoma) | TGI (NCI/ADR-RES ovarian) | TGI (HL-60(TB) leukemia) | TGI (COLO 205 colon) | GI50 (M14 melanoma) | GI50 (HCT-116 colon) | GI50 (HCC-2998 colon) | GI50 (RPMI-8226 leukemia) | GI50 (MCF7 breast) | GI50 (SW-620 colon) | GI50 (SK-MEL-2 melanoma) | GI50 (NCI/ADR-RES ovarian) | GI50 (HL-60(TB) leukemia) | GI50 (COLO 205 colon)
1 | O=C1C=CC(=O)N1c1ccc(I)cc1 | 31.2 µM | 30.9 µM | 35.1 µM | 22.1 µM | 45.3 µM | 49.3 µM | 40.7 µM | 82.3 µM | 9.73 µM | 13.9 µM | – | – | – | – | – | – | – | – | – | –
2 | N#C/C(=C\c1ccc(F)cc1)n1nc2cccc(F)c2n1 | > 100 µM | > 100 µM | > 100 µM | 87.1 µM | > 100 µM | > 100 µM | > 100 µM | 14.8 µM | 7.68 µM | > 100 µM | 3.27 µM | 3.57 µM | 7.14 µM | 3.09 µM | 2.24 µM | 3.45 µM | 5.26 µM | 2.99 µM | 2.69 µM | 4.16 µM
3 | O=C1c2cccnc2C(=O)c2c1c(C(=O)OCCc1ccccn1)c1ccccn21 | 0.33 µM | 0.318 µM | 2.08 µM | – | 0.147 µM | > 44.8 µM | 3.47 µM | 1.15 µM | 5.93 µM | 3.16 µM | 0.0262 µM | 0.019 µM | 0.12 µM | 0.219 µM | < 0.01 µM | < 0.01 µM | 0.351 µM | 0.0252 µM | 0.783 µM | 1.45 µM
4 | FC(F)(F)c1ccc(-c2ncc(-c3ccc(C(F)(F)F)cc3)c(NCc3cc(C(F)(F)F)cc(C(F)(F)F)c3)n2)cc1 | > 100 µM | > 100 µM | 46.7 µM | 35.3 µM | > 100 µM | > 100 µM | 8.93 µM | > 100 µM | 36.2 µM | 6.09 µM | 4.38 µM | 3.84 µM | 5.76 µM | 4.24 µM | 3.94 µM | 3.95 µM | 2.84 µM | 4.62 µM | 4.79 µM | 2.34 µM
5 | CCOC(=O)[C@@H](C)C[C@H](Cc1ccccc1)NC(=O)c1csc([C@@H](C[C@H](C(C)C)N(C)C(=O)[C@@H](NC(=O)[C@H]2C[C@H](O)CCN2C)C(C)C)OC(C)=O)n1 | – | – | > 16.7 µM | > 16.7 µM | > 16.7 µM | > 16.7 µM | > 16.7 µM | > 16.7 µM | 0.012 µM | 0.0143 µM | – | – | 0.00295 µM | < 0.00167 µM | < 0.00167 µM | 0.00417 µM | 0.00243 µM | 2.67 µM | 0.00278 µM | < 0.00167 µM
6 | C=C(CN1CCN(c2ccccc2C(F)(F)F)CC1)c1ccc(C(=O)Nc2ccccc2N)cc1 | > 100 µM | 16.3 µM | 13.9 µM | 1.01 µM | 37.1 µM | > 65.9 µM | > 95.1 µM | 10.5 µM | 0.756 µM | 45.9 µM | 4.47 µM | 3.09 µM | 3.83 µM | 0.164 µM | 4.48 µM | 3.4 µM | 10.3 µM | 2.01 µM | 0.037 µM | 11.5 µM
